Test results published in patent US7858621B2 (Amorepacific Corporation, priority 2006, dated 2010).

Target: T1, vanilloid receptor (Rattus norvegicus, UniProt O35433)
T1 construct: DRG nerve cells from the primary culture of 2 days were equilibrated; endogenous in cells; host or cells: primary culture of dorsal root ganglion neurons from neonatal SD rats
Experiment: 45Ca influx test in cultured neonatal rat DRG neurons, inhibition of capsaicin response
Type: cell-based
Details: neonatal rat DRG neurons, capsaicin 0.5 μM, 45Ca influx; read-out: Antagonist Calcium Uptake Test (IC50)
How it was run: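 Neonatal SD rat DRG neurons, cultured 2 days with NGF (200 ng/ml) and Ara-C, were washed in HEPES (10 mM, pH 7.4)-buffered Ca/Mg-free HBSS. Test compound was added with capsaicin (final 0.5 μM) and 45Ca (10 μCi/ml) for 10 min at room temperature; 45Ca uptake counted by scintillation after SDS elution.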

T1 sequence (O35433 whole entry): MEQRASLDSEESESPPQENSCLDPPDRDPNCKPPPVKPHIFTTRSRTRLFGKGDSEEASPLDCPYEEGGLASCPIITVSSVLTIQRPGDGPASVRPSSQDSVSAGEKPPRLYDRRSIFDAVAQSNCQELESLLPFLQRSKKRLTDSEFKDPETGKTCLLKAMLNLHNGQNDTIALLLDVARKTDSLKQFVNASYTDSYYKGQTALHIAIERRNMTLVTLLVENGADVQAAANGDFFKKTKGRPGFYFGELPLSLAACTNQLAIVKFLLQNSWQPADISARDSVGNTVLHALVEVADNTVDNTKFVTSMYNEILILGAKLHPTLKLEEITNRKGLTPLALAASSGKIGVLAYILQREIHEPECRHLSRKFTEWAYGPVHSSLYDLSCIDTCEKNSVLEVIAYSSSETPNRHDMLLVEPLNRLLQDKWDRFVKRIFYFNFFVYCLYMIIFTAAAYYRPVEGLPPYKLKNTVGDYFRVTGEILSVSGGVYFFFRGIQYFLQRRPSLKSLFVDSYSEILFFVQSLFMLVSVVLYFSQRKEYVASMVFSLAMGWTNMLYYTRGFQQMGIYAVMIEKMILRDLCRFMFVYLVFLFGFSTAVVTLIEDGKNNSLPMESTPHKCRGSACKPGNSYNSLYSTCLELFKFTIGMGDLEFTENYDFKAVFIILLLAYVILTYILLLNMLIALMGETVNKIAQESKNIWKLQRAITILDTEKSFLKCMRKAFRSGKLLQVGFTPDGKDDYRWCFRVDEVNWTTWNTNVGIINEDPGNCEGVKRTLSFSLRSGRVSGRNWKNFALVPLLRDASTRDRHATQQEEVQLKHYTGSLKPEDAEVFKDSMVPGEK

| IC50 [nM] | Compound |
| --- | --- |
| 75 | CCCCNc1nc(C(F)(F)F)ccc1/C=C/C(=O)NCc1ccc(NS(C)(=O)=O)c(C)c1 [Example 187, N-(4-Methanesulfonylamino-3-methyl-benzyl)-3-(2-butylamino-6-trifluoromethyl-pyridin-3-yl)-acrylamide] |
| 190 | CC(C)c1nc(C(F)(F)F)ccc1/C=C/C(=O)NCc1cc(F)c(NS(C)(=O)=O)c(F)c1 [Example 232, N-(3,5-Difluoro-4-methanesulfonylamino-benzyl)-3-(2-isopropyl-6-trifluoromethyl-pyridin-3-yl)-acrylamide] |
| 150 | CC(C)Cc1nc(C(F)(F)F)ccc1/C=C/C(=O)NCc1cc(F)c(NS(C)(=O)=O)c(C#N)c1 [Example 163, N-(3-Cyano-5-fluoro-4-methanesulfonylamino-benzyl)-3-(2-isobutyl-6-trifluoromethyl-pyridin-3-yl)-acrylamide] |
| 68 | CCNc1nc(C(F)(F)F)ccc1/C=C/C(=O)NCc1ccc(NS(C)(=O)=O)c(F)c1 [Example 256, 3-(2-Ethylamino-6-trifluoromethyl-pyridin-3-yl)-N-(3-fluoro-4-methanesulfonylamino-benzyl)-acrylamide] |
| 460 | Cc1cc(CNC(=O)/C=C/c2ccc(C(F)(F)F)nc2-c2cccc(F)c2)cc(F)c1NS(C)(=O)=O [Example 180, N-(3-Fluoro-4-methanesulfonylamino-5-methyl-benzyl)-3-[2-(3-fluoro-phenyl)-6-trifluoromethyl-pyridin-3-yl]-acrylamide] |
| 3300 | CS(=O)(=O)Nc1c(F)cc(CNC(=O)/C=C/c2ccc(C(F)(F)F)nc2N2CCOCC2)cc1C(F)(F)F [Examples 22] |
| 1300 | CCC/C(=C/C(=O)NCc1ccc(NS(C)(=O)=O)c(Cl)c1)c1ccc(C(F)(F)F)nc1CCC [Example 271] |
| 920 | CC(C)Sc1nc(C(F)(F)F)ccc1/C=C/C(=O)NCc1ccc(NS(C)(=O)=O)c(F)c1 [Example 178, N-(3-Fluoro-4-methanesulfonylamino-benzyl)-3-(2-isopropylthio-6-trifluoromethyl-pyridin-3-yl)-acrylamide] |
| 87 | CCCc1nc(C(F)(F)F)ccc1/C=C/C(=O)N[C@H](C)c1ccc(NS(C)(=O)=O)c(F)c1 [Example 209, (R)-3-(2-Propyl-6-trifluoromethyl-pyridin-3-yl)-N-[1-(3-fluoro-4-methanesulfonylamino-phenyl)-ethyl]-acrylamide] |
| 400 | COc1nc(C(C)(C)C)ccc1/C=C/C(=O)NCc1ccc(NS(C)(=O)=O)c(F)c1 [Examples 9] |
| 770 | CC(C)Cc1nc(C(F)(F)F)ccc1/C=C/C(=O)NCc1ccc(NS(C)(=O)=O)cc1 [Example 265, 3-(2-Isobutyl-6-trifluoromethyl-pyridin-3-yl)-N-(4-methanesulfonylamino-benzyl)-acrylamide] |
| 120 | Cc1cc(CNC(=O)/C=C/c2ccc(C(F)(F)F)nc2N(C)c2ccccc2)ccc1NS(C)(=O)=O [Example 167, N-(4-methanesulfonylamino-3-methyl-benzyl)-3-[2-(methyl-phenylamino)-6-trifluoromethyl-pyridin-3-yl]-acrylamide] |
| 150 | CCC(C)Cc1nc(C(F)(F)F)ccc1/C=C/C(=O)NCc1ccc(NS(C)(=O)=O)c(F)c1 (stereo not shown) [Example 151, N-(3-Fluoro-4-methanesulfonylamino-benzyl)-3-[2-(2-methyl-butyl)-6-trifluoromethyl-pyridin-3-yl]-acrylamide] |
| 76 | C#Cc1cc(CNC(=O)/C=C/c2ccc(C(F)(F)F)nc2C(C)C)cc(F)c1NS(C)(=O)=O [Example 231, N-(3-Ethynyl-5-fluoro-4-methanesulfonylamino-benzyl)-3-(2-isopropyl-6-trifluoromethyl-pyridin-3-yl)-acrylamide] |
| 85 | CC(C)Cc1nc(C(F)(F)F)ccc1/C=C/C(=O)NCc1cc(F)c(NS(C)(=O)=O)c(F)c1 [Example 226, N-(3,5-Difluoro-4-methanesulfonylamino-benzyl)-3-(2-isobutyl-6-trifluoromethyl-pyridin-3-yl)-acrylamide] |

Continued, molecule first:

| Compound | IC50 [nM] |
| --- | --- |
| CS(=O)(=O)Nc1ccc(CNC(=O)/C=C/c2ccc(C(F)(F)F)nc2Nc2ccccc2)cc1F [Example 127, N-(3-Fluoro-4-methanesulfonylamino-benzyl)-3-(2-phenylamino-6-trifluoromethyl-pyridin-3-yl)-acrylamide] | 320 |
| CS(=O)(=O)Nc1ccc(CNC(=O)/C=C/c2ccc(C(F)(F)F)nc2)cc1F [Example 58, N-(3-Fluoro-4-methanesulfonylamino-benzyl)-3-(6-trifluoromethyl-pyridin-3-yl)-acrylamide] | > 10000 |
| C#Cc1cc(CNC(=O)/C=C/c2ccc(C(F)(F)F)nc2N2CCC(C(=O)OCC)CC2)cc(F)c1NS(C)(=O)=O [Example 110, AT-(3-Ethynyl-5-fluoro-4-methansulfonylamino-benzyl)-3-[2-(4-ethoxycarbonyl-piperid-1-yl)-6-trifluoromethyl-pyridin-3-yl]-acrylamide] | 580 |
| C#Cc1cc(CNC(=O)/C=C/c2ccc(C(F)(F)F)nc2-c2ccc(F)nc2)cc(F)c1NS(C)(=O)=O [Example 135] | 2300 |
| C#Cc1cc(CNC(=O)/C=C/c2ccc(C(F)(F)F)nc2OCCCC)cc(F)c1NS(C)(=O)=O [Example 66, 3-(2-Butoxy-6-trifluoromethyl-pyridin-3-yl)-N-(3-ethynyl-5-fluoro-4-methanesulfonylamino-benzyl)-acrylamide] | 250 |
| CS(=O)(=O)Nc1ccc(CNC(=O)/C=C/c2ccc(C(F)(F)F)nc2OCC(F)(F)F)cc1F [Example 87, N-(3-Fluoro-4-methanesulfonylamino-benzyl)-3-[2-(2,2,2-trifluoro-ethoxy)-6-trifluoromethyl-pyridin-3-yl]-acrylamide] | 2200 |
| C#Cc1cc(CNC(=O)/C=C/c2ccc(C(F)(F)F)nc2-n2cccn2)cc(F)c1NS(C)(=O)=O [Example 80, N-(3-Ethynyl-5-fluoro-4-methanesulfonylamino-benzyl)-3-[2-pyrazol-1-yl-6-trifluoromethyl-pyridin-3-yl]-acrylamide] | 3100 |
| CS(=O)(=O)Nc1ccc(CNC(=O)/C=C/c2ccc(C(F)(F)F)nc2NC2CCCC2)cc1F [Example 89, 3-(2-Cyclopentylamino-6-trifluoromethyl-pyridin-3-yl)-N-(3-fluoro-4-methanesulfonylamino-benzyl)-acrylamide] | 280 |
| CCCCOc1nc(C(F)(F)F)ccc1/C=C/C(=O)NCc1cc(F)c(NS(C)(=O)=O)c(C#N)c1 [Example 98, 3-(2-Butoxy-6-trifluoromethyl-pyridin-3-yl)-N-(3-cyano-5-fluoro-4-methanesulfonylamino-benzyl)-acrylamide] | 190 |
| CCCCOc1nc(C(F)(F)F)ccc1/C=C/C(=O)NCc1cc(F)c(NS(C)(=O)=O)c(C(F)(F)F)c1 [Example 168, 3-(2-Butoxy-6-trifluoromethyl-pyridin-3-yl)-N-(3-fluoro-4-methanesulfonylamino-5-trifluoromethyl-benzyl)-acrylamide] | 1800 |
| CS(=O)(=O)Nc1c(F)cc(CNC(=O)/C=C/c2ccc(C(F)(F)F)nc2Oc2ccccc2)cc1C#N [Example 105, N-(3-Cyano-5-fluoro-4-methanesulfonylamino-benzyl)-3-(2-phenoxy-6-trifluoromethyl-pyridin-3-yl)-acrylamide] | 630 |
| C[C@@H](NC(=O)/C=C/c1ccc(C(F)(F)F)nc1Nc1ccccc1)c1ccc(NS(C)(=O)=O)c(F)c1 [Example 149, (R)—N-[1-(3-Fluoro-4-methanesulfonylamino-phenyl)-ethyl]-3-(2-phenylamino-6-trifluoromethyl-pyridin-3-yl)-acrylamide] | 250 |
| CS(=O)(=O)Nc1ccc(CNC(=O)/C=C/c2ccc(C(F)(F)F)nc2OC2CCOC2)cc1F (stereo not shown) [Example 104, 3-[2-(Tetrahydro-furan-3-yloxy)-6-trifluoromethyl-pyridin-3-yl]-N-(3-fluoro-4-methanesulfonylamino-benzyl)-acrylamide] | 1600 |
| Cc1ccc(OCC(=O)NCc2ccc(NS(C)(=O)=O)c(F)c2)c(CO)n1 [Example 31, N-(3-Fluoro-4-methanesulfonylamino-benzyl)-2-(2-hydroxymethyl-6-methyl-pyridin-3-yloxy)-acetamide] | > 10000 |
| CS(=O)(=O)Nc1ccc(CNC(=O)/C=C/c2ccc(C(F)(F)F)nc2NCCO)cc1F [Example 61, N-(3-Fluoro-4-methanesulfonylamino-benzyl)-3-[2-(2-hydroxy-ethylamino)-6-trifluoromethyl-pyridin-3-yl]-acrylamide] | 4900 |
| CS(=O)(=O)Nc1ccc(CNC(=O)/C=C/c2ccc(C(F)(F)F)nc2OCc2ccccc2)cc1F [Example 112, 3-(2-Benzyloxy-6-trifluoromethyl-pyridin-3-yl)-N-(3-fluoro-4-methanesulfonylamino-benzyl)-acrylamide] | 1400 |
| C#Cc1cc(CNC(=O)/C=C/c2ccc(C(F)(F)F)nc2OC2CCOC2)cc(F)c1NS(C)(=O)=O (stereo not shown) [Example 79, 3-[2-(Tetrahydro-furan-3-yloxy)-6-trifluoromethyl-pyridin-3-yl]-N-(3-ethynyl-5-fluoro-4-methanesulfonylamino-benzyl)-acrylamide] | 430 |
| CCC(C)Nc1nc(C(F)(F)F)ccc1/C=C/C(=O)NCc1cc(C)c(NS(C)(=O)=O)c(F)c1 (stereo not shown) [Example 130, 3-(2-sec-Butylamino-6-trifluoromethyl-pyridin-3-yl)-N-(3-fluoro-4-methanesulfonylamino-5-methyl-benzyl)-acrylamide] | 54 |
| C#Cc1cc(CNC(=O)/C=C/c2cnc(OC)cc2C(F)(F)F)cc(F)c1NS(C)(=O)=O [Example 41, N-(3-Ethynyl-5-fluoro-4-methanesulfonylaminobenzyl)-3-(6-methoxy-4-trifluoromethylpyridin-3-yl)acrylamide] | 1600 |
